Data on 28 molecules can be found in US4804684A, “Symmetrical O-substituted dioximes of benzo-fused β-diketocyclo-alkylenes, the processes for their preparation and their application as drugs” (Panmedica S.A., priority 1986, dated 1989).

A word on the IC50: it is the point on the concentration scale where inhibition reaches its midpoint.

The subject of experiment [1] is platelet-rich human plasma; platelet aggregation induced by ADP. In words: Platelet aggregation (platelet-rich human plasma) induced in vitro by ADP. Type of experiment: cell-based. As to conditions: platelet-rich human plasma, 300,000 platelets/cm^2, 2.0 μg/ml of ADP; read-out: IC50, inductor: ADP. How it is done:
(§1) Study of the Effects on the Platelet Aggregation (Platelet-Rich Human Plasma) Induced in Vitro By: ADP, Collagen or Arachidonic Acid Blood samples from volunteer donors are treated and adjusted to a platelet concentration of 300,000/cm^2 and then incubated with different concentrations of the test products. Aggregation is induced by 2.0 μg/ml of ADP or by 10.0 μg/ml of collagen. The measurements are made using a Bryston-type aggregometer--or CHRONOLOG. The changes in optical density are noted and the values of the concentrations which cause a 50% inhibition are calculated.

Experiment [2] deals with platelet-rich human plasma; platelet aggregation induced by collagen. Nature of the experiment: Platelet aggregation (platelet-rich human plasma) induced in vitro by collagen. Type of experiment: cell-based. As to conditions: platelet-rich human plasma, 300,000 platelets/cm^2, 10.0 μg/ml of collagen; read-out: IC50, inductor: collagen. How it is done: as §1
A further experiment relates to platelet aggregation. Nature of the experiment: In vitro inhibition of platelet aggregation (BORN's method), induced by collagen or ADP. The note with it: 100 μg/ml, aspirin as reference. Type of experiment: cell-based, animal and human. The procedure:
In vitro inhibition of platelet aggregation The inhibition of platelet aggregation is measured in vitro by BORN's method (Nature 4832, 927 (1962)), the aggregation being induced by collagen or ADP. […] The aggregation can also be induced in vitro by serotonin, arachidonic acid and norepinephrine. Furthermore, this inhibitory effect was observed on platelet-rich plasma (PRP) of animal origin and human origin.

Converted amounts (≈) assume the structure as drawn. Counter-ions that a name gives are not always drawn.

As for `C=CCON=C1CC(=NOCC=C)c2ccccc2-c2ccccc21` [Example 1, 5,7 -Bis(Allyloxyimino)-6,7-Dihydro-(5H)-Dibenzo[a,c]Cycloheptene], the IC50 in experiment [1] is 650 µg/mL (≈ 1960 µM); in experiment [2], 800 µg/mL (≈ 2410 µM).
Consider `CON=C1CC(=NOC)c2ccccc2-c2ccccc21` [Example 2, 5,7-Bis(Methoxyimino)-6,7-Dihydro-(5H)-Dibenzo[a,c]Cycloheptene], for which the IC50 in experiment [2] stood at 800 µg/mL (≈ 2850 µM).
As for `CCON=C1CC(=NOCC)c2ccccc2-c2ccccc21` [Example 3, 5,7-Bis(Ethoxyimino)-6,7-Dihydro-(5H)-Dibenzo[a,c]Cycloheptene], the figures for the IC50 in experiment [1] and in experiment [2] were 620 µg/mL (≈ 2010 µM) and 500 µg/mL (≈ 1620 µM), respectively.
On the same counts, the results for `CCCON=C1CC(=NOCCC)c2ccccc2-c2ccccc21` [Example 4, 5,7-Bis(n-Propoxyimino)-6,7-Dihydro-(5H)-Dibenzo[a,c]Cycloheptene] are 600 µg/mL (≈ 1780 µM) and 420 µg/mL (≈ 1250 µM).
Consider `N#CCCCON=C1CC(=NOCCCC#N)c2ccccc2-c2ccccc21` [Example 5, 5,7-Bis(3-Cyanopropoxyimino)-6,7-Dihydro-(5H)-Dibenzo[a,c]Cycloheptene], for which the IC50 turned out to be 420 µg/mL (≈ 1090 µM) in experiment [1] and 650 µg/mL (≈ 1680 µM) in experiment [2].
For `CC(C)(C)ON=C1CC(=NOC(C)(C)C)c2ccccc2-c2ccccc21` [Example 6, 5,7-Bis(Tert.-Butoxyimino)-6,7-Dihydro-(5H)-Dibenzo[a,c]Cycloheptene], the figures for the IC50 in experiment [1] and in experiment [2] were 460 µg/mL (≈ 1260 µM) and 600 µg/mL (≈ 1650 µM), respectively.
In the same order, the values of `c1ccc2c(c1)C(=NOCC1CCCCC1)CC(=NOCC1CCCCC1)c1ccccc1-2` [Example 7, 5,7-Bis(Cyclohexylmethoxyimino)-6,7-Dihydro-(5H)-Dibenzo[a,c]Cycloheptene] are 600 µg/mL (≈ 1350 µM) and 600 µg/mL (≈ 1350 µM).
On the same counts, the results for `c1ccc(CON=C2CC(=NOCc3ccccc3)c3ccccc3-c3ccccc32)cc1` [Example 8, 5,7-Bis(Benzyloxyimino)-6,7-Dihydro-(5H)-Dibenzo[a,c]Cycloheptene] are 650 µg/mL (≈ 1500 µM) and 800 µg/mL (≈ 1850 µM).
In the same order, the values of `c1ccc(CCON=C2CC(=NOCCc3ccccc3)c3ccccc3-c3ccccc32)cc1` [Example 9, 5,7-Bis(2-Phenylethoxyimino)-6,7-Dihydro-(5H)-Dibenzo[a,c]Cycloheptene] are 600 µg/mL (≈ 1300 µM) and 600 µg/mL (≈ 1300 µM).
`CCOC(=O)CON=C1CC(=NOCC(=O)OCC)c2ccccc2-c2ccccc21` [Example 10, 5,7-Bis(Ethoxycarbonylmethoxyimino)-6,7-Dihydro-(5H)-Dibenzo[a,c]Cycloheptene]: the IC50 in experiment [1] stood at 400 µg/mL (≈ 942 µM); in experiment [2], 650 µg/mL (≈ 1530 µM).
As for `CC(C)(C)OC(=O)CON=C1CC(=NOCC(=O)OC(C)(C)C)c2ccccc2-c2ccccc21` [Example 11, 5,7-Bis(Tert.-Butoxycarbonylmethoxyimino)-6,7-Dihydro-(5H)-Dibenzo[a,c]Cycloheptene], the figures for the IC50 in experiment [1] and in experiment [2] were 200 µg/mL (≈ 416 µM) and 320 µg/mL (≈ 666 µM), respectively.
In the same order, the values of `CCOC(=O)CCCON=C1CC(=NOCCCC(=O)OCC)c2ccccc2-c2ccccc21` [Example 12, 5,7-Bis(Ethoxycarbonylpropoxyimino)-6,7-Dihydro-(5H)-Dibenzo[a,c]Cycloheptene] are 450 µg/mL (≈ 936 µM) and 670 µg/mL (≈ 1390 µM).
In the case of `O=C(O)CON=C1CC(=NOCC(=O)O)c2ccccc2-c2ccccc21` [Example 13, 5,7-Bis(Hydroxycarbonylmethoxyimino)-6,7-Dihydro-(5H)-Dibenzo[a,c]Cycloheptene], the IC50 in experiment [1] was found to be 400 µg/mL (≈ 1090 µM); in experiment [2] it was 450 µg/mL (≈ 1220 µM).
`Cl.Cl.c1ccc2c(c1)C(=NOCCN1CCCCC1)CC(=NOCCN1CCCCC1)c1ccccc1-2` [Example 20, 5,7-Bis(Piperidin-1-ylethoxyimino)-6,7-Dihydro-(5H)-Dibenzo[a,c]Cycloheptene Dihydrochloride]: the IC50 in experiment [1] amounted to 80 µg/mL; in experiment [2], 120 µg/mL. The “inhibition of platelet aggregation compared with aspirin” value (“inhibition … compared with aspirin” for short) in the experiment with platelet aggregation is “comparable or even superior to aspirin”.
Take `CCN(CC)CCON=C1c2ccccc2C(=NOCCN(CC)CC)C1c1ccccc1` (stereo not shown) [Example 21, 1,3-Bis(2-Diethylaminoethoxyimino)-2-Phenyl-(1H)-Indene-(2H) Dihydrochloride]: the IC50 in experiment [1] was determined as 24 µg/mL; in experiment [2] it was 40 µg/mL. Further, in the experiment with platelet aggregation, the “inhibition … compared with aspirin” value is reported as “comparable or even superior to aspirin”.
For the molecule `c1ccc2c(c1)C(=NOCCN1CCOCC1)CC2=NOCCN1CCOCC1` [Example 23, 1,3-Bis(2-Morpholinoethoxyimino)-(1H)-Indene-(2H) Dihydrochloride], the IC50 in experiment [1] was 420 µg/mL; in experiment [2], 350 µg/mL.
In the case of `c1ccc(C2C(=NOCCN3CCOCC3)c3ccccc3C2=NOCCN2CCOCC2)cc1` (stereo not shown) [Example 24, 1,3-Bis(2-Morpholinoethoxyimino)-2-Phenyl-(1H)-Indene-(2H) Dihydrochloride], the IC50 was determined as 210 µg/mL in experiment [1] and 340 µg/mL in experiment [2]. The “inhibition … compared with aspirin” value in the experiment on platelet aggregation is listed as “comparable or even superior to aspirin”.
On the same counts, the results for `c1ccc(C2C(=NOCCN3CCCCC3)c3ccccc3C2=NOCCN2CCCCC2)cc1` (stereo not shown) [Example 25, 1,3-Bis(2-Piperidin-1-ylethoxyimino)-2-Phenyl-(1H)-Indene-(2H) Dihydrochloride] are 20 µg/mL, 38 µg/mL and “comparable or even superior to aspirin”.
For `COc1ccc(C2C(=NOCCN3CCCCC3)c3ccccc3C2=NOCCN2CCCCC2)cc1` (stereo not shown) [Example 26, 1,3-Bis(2-Piperidin-1-ylethoxyimino-2-(4-Methoxyphenyl-(1H)-Indene-(2H) Dihydrochloride], the IC50 in experiment [1] stood at 18 µg/mL; in experiment [2], 24 µg/mL. Further, in the experiment on platelet aggregation, the “inhibition … compared with aspirin” value is given as “comparable or even superior to aspirin”.
On the same counts, the results for `CCN(CC)CCON=C1c2ccccc2C(=NOCCN(CC)CC)C1c1ccc(Cl)cc1` (stereo not shown) [Example 27, 1,3-Bis(2-Diethylaminoethoxyimino)-2-(4-Chlorophenyl)-(1H)-Indene-(2H) Dihydrochloride] are 28 µg/mL, 40 µg/mL and “comparable or even superior to aspirin”.
In the case of `CCN(CC)CCON=C1c2ccccc2C(=NOCCN(CC)CC)C1c1ccc(C)cc1` (stereo not shown) [Example 28, 1,3-Bis(2-Diethylaminoethoxyimino)-2-(4-Methylphenyl)-(1H)-Indene-(2H) Dihydrochloride], the values for the IC50 in experiment [1] and in experiment [2] were 40 µg/mL and 62 µg/mL, respectively. In the experiment on platelet aggregation, the “inhibition … compared with aspirin” value is listed as “comparable or even superior to aspirin”.
In the same order, the values of `CCN(CC)CCON=C1c2ccccc2C(=NOCCN(CC)CC)C1c1ccc2c(c1)OCO2` (stereo not shown) [Example 29, 1,3-Bis(2-Diethylaminoethoxyimino)-2-(3,4-Methylenedioxyphenyl)-(1H)-Indene-(2H) Dihydochloride] are 100 µg/mL (≈ 202 µM), 110 µg/mL (≈ 222 µM) and “comparable or even superior to aspirin”.
On the same counts, the results for `CCOC(=O)CON=C1c2ccccc2C(=NOCC(=O)OCC)C1c1ccccc1` (stereo not shown) [Example 30, 1,3-Bis(Ethoxycarbonylmethoxyimino)-2-Phenyl-(1H)-Indene-(2H)] are 210 µg/mL (≈ 495 µM), 150 µg/mL (≈ 353 µM) and “comparable or even superior to aspirin”.
For `O=C(O)CON=C1c2ccccc2C(=NOCC(=O)O)C1c1ccccc1` (stereo not shown) [Example 31, 1,3-Bis(Hydroxycarbonylmethoxyimino)-2-Phenyl-(1H)-Indene-(2H)], the IC50 in experiment [2] was 250 µg/mL (≈ 679 µM).
`CCN(CC)CCON=C1c2ccccc2-c2ccccc2C(=NOCCN(CC)CC)C1c1ccccc1.Cl.Cl` (stereo not shown) [Example 32, 5,7-Bis(2-Diethylaminoethoxyimino)-6-Phenyl-6,7-Dihydro-(5H)-Dibenzo[a,c]Cycloheptene Dihydrochloride]: the IC50 amounted to 18 µg/mL in experiment [1] and 20 µg/mL in experiment [2]. The “inhibition … compared with aspirin” value with platelet aggregation is listed as “comparable or even superior to aspirin”.
On to `CCN(CC)CCON=C1c2ccccc2-c2ccccc2C(=NOCCN(CC)CC)C1c1ccc(F)cc1.Cl.Cl` (stereo not shown) [Example 33, 5,7-Bis(2-Diethylaminoethoxyimino)-6-(4-Fluorophenyl)-6,7-Dihydro-(5H)-Dibenzo[a,c]Cycloheptene Dihydrochloride], for which the IC50 was found to be 22 µg/mL in experiment [1] and 12 µg/mL in experiment [2]. The “inhibition … compared with aspirin” value in the experiment on platelet aggregation is listed as “comparable or even superior to aspirin”.
`CCN(CC)CCON=C1c2ccccc2-c2ccccc2C(=NOCCN(CC)CC)C1c1ccc(Cl)cc1.Cl.Cl` (stereo not shown) [Example 34, 5,7-Bis(2-Diethylaminoethoxyimino)-6-(4-Chlorophenyl)-6,7-Dihydro-(5H)-Dibenzo[a,c]Cycloheptene Dihydrochloride]: the IC50 in experiment [1] is 24 µg/mL; in experiment [2] it was 40 µg/mL. The “inhibition … compared with aspirin” value in the experiment on platelet aggregation is listed as “comparable or even superior to aspirin”.
In the same order, the values of `CCN(CC)CCON=C1c2ccccc2-c2ccccc2C(=NOCCN(CC)CC)C1c1ccc(OC)cc1.Cl.Cl` (stereo not shown) [Example 35, 5,7-Bis(Diethylaminoethoxyimino)-6-(4-Methoxyphenyl)-6,7-Dihydro-(5H)-Dibenzo[a,c]Cycloheptene Dihydrochloride] are 16 µg/mL, 25 µg/mL and “comparable or even superior to aspirin”.
